Test results: ChEMBL document CHEMBL1201862, “PubChem BioAssay data set” (2004)
Active and inactive are the calls of the source.

Key:
[1] = alpha-synuclein stem-loop luciferase translation blockers – H4 neuroglioma cells, luminescence, confirmation (AID 1988); format: functional, cell-based
[2] = Trypanosoma cruzi growth suppression in host cells – NIH3T3 host cells, beta-gal luminescence, confirmation (AID 2044); format: functional, cell-based;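 further: intracellular parasites grown in NIH/3T3 mouse fibroblasts as host cells; luminescent beta-galactosidase reporter signal from transgenic T. cruzi replicating inside host cells; inhibitors lower the luminescence signal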
[3] = NIH3T3 cell viability loss – ATP luminescence, mouse fibroblasts, counter-screen, dose response (AID 2010); format: functional, cell-based;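 further: cells exposed to compound for about 90 hours before reading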
[4] = luciferase reporter signal suppression in cells – H4 neuroglioma cells, luminescence, dose response (AID 1990); format: functional, cell-based
[5] = biological target: T1, Rac GTPase-activating protein 1 (Homo sapiens, UniProt Q9H0H5); assay: blockers of MgcRacGAP-driven Rac1 GTP hydrolysis – biochemical, ADP Hunter fluorescence, primary and confirmatory, confirmation (AID 624330); format: functional
T1 sequence (Q9H0H5 whole entry): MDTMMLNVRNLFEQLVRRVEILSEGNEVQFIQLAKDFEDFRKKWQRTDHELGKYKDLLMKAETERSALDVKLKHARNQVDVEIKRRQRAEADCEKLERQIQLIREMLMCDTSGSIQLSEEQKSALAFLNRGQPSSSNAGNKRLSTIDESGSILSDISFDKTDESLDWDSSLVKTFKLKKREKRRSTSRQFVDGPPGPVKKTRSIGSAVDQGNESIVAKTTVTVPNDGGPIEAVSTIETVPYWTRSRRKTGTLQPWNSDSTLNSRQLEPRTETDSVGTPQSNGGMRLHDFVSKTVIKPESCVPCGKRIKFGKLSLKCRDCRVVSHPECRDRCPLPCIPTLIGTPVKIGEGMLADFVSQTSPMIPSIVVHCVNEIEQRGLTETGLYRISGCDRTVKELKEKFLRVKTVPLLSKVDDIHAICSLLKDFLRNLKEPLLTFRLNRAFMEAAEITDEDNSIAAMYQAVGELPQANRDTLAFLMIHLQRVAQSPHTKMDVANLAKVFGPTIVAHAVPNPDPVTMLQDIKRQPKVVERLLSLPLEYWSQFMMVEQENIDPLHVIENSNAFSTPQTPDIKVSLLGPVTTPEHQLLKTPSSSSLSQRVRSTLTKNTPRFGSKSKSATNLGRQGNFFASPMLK

[6] = biological target: T2, Heat shock factor protein 1 (Mus musculus, UniProt P38532); assay: decrease of HSF1-responsive luciferase luminescence – cell-based, NIH3T3, dose retest, confirmation (AID 2382); format: functional;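 further: NIH3T3 fibroblasts with HSF1-driven luciferase reporter stressed by proteasome inhibitor MG132; luminescence from HSF1-driven luciferase expression after 8 hours of MG132 stress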
T2 sequence (P38532 whole entry): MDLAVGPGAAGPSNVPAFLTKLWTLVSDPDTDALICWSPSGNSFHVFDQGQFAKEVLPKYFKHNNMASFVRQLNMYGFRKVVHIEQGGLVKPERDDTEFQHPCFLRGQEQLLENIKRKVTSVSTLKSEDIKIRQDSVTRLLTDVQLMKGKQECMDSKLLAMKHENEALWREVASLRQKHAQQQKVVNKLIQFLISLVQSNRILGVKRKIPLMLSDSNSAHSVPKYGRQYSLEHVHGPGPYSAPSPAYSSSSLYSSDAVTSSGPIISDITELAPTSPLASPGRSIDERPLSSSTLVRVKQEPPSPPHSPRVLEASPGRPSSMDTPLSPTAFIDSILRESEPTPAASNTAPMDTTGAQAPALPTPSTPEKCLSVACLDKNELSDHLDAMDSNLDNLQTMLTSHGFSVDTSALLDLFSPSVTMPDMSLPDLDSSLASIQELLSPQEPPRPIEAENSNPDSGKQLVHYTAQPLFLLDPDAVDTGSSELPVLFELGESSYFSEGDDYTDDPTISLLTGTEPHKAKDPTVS

[7] = biological target: T3, Polyadenylate-binding protein 1 (Homo sapiens, UniProt P11940); assay: MLLE binding blockers, Cy5 peptide tracer – biochemical, fluorescence polarization, Cy5-PAM2 peptide, secondary, miRNA deadenylation inhibitor project, dose response (AID 602260); format: functional; conditions: read-out: IC50_Mean
[8] = biological target: T3, Polyadenylate-binding protein 1; assay: MLLE domain peptide-binding blockers, IC50 – biochemical, fluorescence polarization, FITC-PAM2 peptide, dose response (AID 602259); format: functional; conditions: read-out: IC50_Mean
[9] = Luminescence Cell-Based Dose Retest to Confirm Inhibitors of Cancer Stem Cells. [Related pubchem assays (depositor defined):AID2717, AID2721]; format: functional; conditions: Homo sapiens
[10] = tested on: Streptococcus sp. 'group A'; assay: Streptococcus pyogenes SK(-)GAS viability under kanamycin – luminescence, BacTiterGlo, confirmation, counter-screen for streptokinase expression inhibitor project, dose response (AID 1900); format: functional, organism-based
Streptokinase A = biological target: T4, Streptokinase A (Streptococcus pyogenes serotype M1, UniProt P10520); assay: viability-normalized secreted streptokinase activity reduction – plasminogen activation absorbance, OD405, dose response (AID 1914); format: functional, Streptococcus pyogenes M1 GAS;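 further: secreted streptokinase activity via plasminogen activation per viability signal from cell pellet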
T4 sequence (P10520 whole entry): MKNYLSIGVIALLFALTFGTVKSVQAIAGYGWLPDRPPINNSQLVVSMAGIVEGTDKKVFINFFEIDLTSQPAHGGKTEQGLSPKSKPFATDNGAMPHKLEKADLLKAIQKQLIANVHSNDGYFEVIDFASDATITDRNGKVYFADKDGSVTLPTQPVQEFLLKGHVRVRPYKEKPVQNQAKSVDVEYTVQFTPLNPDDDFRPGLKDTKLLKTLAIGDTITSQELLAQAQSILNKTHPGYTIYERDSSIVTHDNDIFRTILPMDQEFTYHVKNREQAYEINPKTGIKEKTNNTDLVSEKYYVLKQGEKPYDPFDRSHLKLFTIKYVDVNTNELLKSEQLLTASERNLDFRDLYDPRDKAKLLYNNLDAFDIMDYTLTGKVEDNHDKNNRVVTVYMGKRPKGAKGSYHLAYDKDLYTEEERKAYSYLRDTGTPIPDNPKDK

Streptococcus = assay: GAS UMAA2166 growth inhibition – luminescence, BacTiterGlo, counter-screen for streptokinase expression inhibitor project, dose response (AID 1915); format: functional, organism-based;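 further: potency for reduction of bacterial viability or growth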
H9c2 = assay: cells; format: functional, cell-based; conditions: Rattus norvegicus, H9c2, Myocardium
[11] = biological target: T5, Zinc finger protein mex-5 (Caenorhabditis elegans, UniProt Q9XUB2); assay: potency of MEX-5 RNA-binding blockers – biochemical, C. elegans, fluorescence polarization, dose response (AID 1960)
T5 sequence (Q9XUB2 whole entry): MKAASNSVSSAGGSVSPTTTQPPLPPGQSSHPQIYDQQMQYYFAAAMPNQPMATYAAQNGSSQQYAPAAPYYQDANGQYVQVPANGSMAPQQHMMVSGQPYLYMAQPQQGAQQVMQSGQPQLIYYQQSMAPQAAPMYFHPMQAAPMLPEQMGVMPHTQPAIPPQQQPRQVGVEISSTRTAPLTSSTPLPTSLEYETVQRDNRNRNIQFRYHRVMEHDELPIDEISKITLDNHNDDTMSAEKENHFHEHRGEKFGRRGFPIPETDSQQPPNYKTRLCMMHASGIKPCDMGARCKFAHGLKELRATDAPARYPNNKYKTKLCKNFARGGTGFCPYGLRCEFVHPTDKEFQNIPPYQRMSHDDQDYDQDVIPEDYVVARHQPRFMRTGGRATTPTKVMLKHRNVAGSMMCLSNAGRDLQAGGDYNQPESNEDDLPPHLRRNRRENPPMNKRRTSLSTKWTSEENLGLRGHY

[12] = biological target: T6, RNA-binding protein pos-1 (Caenorhabditis elegans, UniProt G5EF15); assay: disruptors of C. elegans POS-1 RNA interaction – biochemical, fluorescence polarization, dose response (AID 1964);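 further: purified POS-1 fused to maltose binding protein made in E. coli; potency of compounds blocking POS-1 binding to fluorescent RNA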
T6 sequence (G5EF15 whole entry): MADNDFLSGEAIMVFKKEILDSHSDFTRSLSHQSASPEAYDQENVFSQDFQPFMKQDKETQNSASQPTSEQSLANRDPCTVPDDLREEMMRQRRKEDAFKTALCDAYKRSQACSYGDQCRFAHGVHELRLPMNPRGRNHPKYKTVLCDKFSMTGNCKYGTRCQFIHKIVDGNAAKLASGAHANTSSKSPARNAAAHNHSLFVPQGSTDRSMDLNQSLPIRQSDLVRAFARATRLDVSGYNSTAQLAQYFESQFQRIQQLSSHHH
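Wherever AC50 is given: cells exposed to compound for roughly 70 hours or longer before luminescence read.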

T3 sequence (P11940 whole entry, the tested form may be a part): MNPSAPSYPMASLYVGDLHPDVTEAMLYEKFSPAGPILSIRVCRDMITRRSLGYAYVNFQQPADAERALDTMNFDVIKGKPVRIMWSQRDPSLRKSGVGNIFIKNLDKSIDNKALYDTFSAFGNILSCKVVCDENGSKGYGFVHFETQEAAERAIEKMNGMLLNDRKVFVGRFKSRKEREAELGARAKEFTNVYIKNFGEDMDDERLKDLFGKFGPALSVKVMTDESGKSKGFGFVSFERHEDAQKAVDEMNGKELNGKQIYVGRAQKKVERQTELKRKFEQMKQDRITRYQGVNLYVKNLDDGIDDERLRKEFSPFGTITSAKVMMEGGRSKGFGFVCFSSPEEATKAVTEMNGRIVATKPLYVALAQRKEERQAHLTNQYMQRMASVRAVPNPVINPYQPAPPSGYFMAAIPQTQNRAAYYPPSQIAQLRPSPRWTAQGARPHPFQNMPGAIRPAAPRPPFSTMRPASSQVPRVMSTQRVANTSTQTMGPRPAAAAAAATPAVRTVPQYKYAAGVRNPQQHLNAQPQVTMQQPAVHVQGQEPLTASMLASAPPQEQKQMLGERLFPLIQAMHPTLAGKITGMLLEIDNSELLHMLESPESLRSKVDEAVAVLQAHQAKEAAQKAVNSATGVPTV

## COc1cccc2sc(Nc3nc(-c4ccncc4)cs3)nc12
[1]
  EC50: 0.601 µM (active)
[2]
  EC50: 2.41 µM (active)
[3]
  EC50: 3.65 µM (active)
[4]
  EC50: 3.2 µM (active)

## O=C(CN1CCCCCC1)NN(Cc1ccccc1)c1ccccc1
[5]
  IC50: 301 µM (active)

## CCOP(=O)(OCC)c1cccc(OP(=O)(c2cccc([N+](=O)[O-])c2)c2cccc([N+](=O)[O-])c2)c1
[6]
  EC50: > 195 µM (not active)

## O=C(CN1CCN(C/C=C/c2ccccc2)CC1)Nc1ccccc1C(=O)NC1CC1
[5]
  IC50: 90.5 µM (active)

## CS(=O)(=O)N(Cc1ccccc1)c1ccc(C(=O)NCCSCc2ccco2)cc1
[7]
  IC50: > 66 µM (inactive)
[8]
  IC50: > 66 µM (inactive)

## Cc1ccc(/C=C/C(=O)Nc2nn[nH]n2)o1
[7]
  IC50: > 66 µM (inactive)
[8]
  IC50: > 66 µM (inactive)

## COc1ccc(C(=O)N2CCN=C2SCc2cccnc2)cc1OC
[6]
  EC50: > 195 µM (not active)

## O=C(Nc1ccc(OC(F)F)c(Cl)c1)Nc1ccc2c(c1)OCO2
[9]
  AC50: 2.04 µM (active)

## COc1ccc(-c2cc(C(=O)Nc3ccc(O)cc3)c3ccccc3n2)cc1OC
[5]
  IC50: 159 µM (active)

## COc1cc(/C=C/C(=O)OCC(=O)NC(=O)NC(C)C)ccc1O
[5]
  IC50: 47.7 µM (active)

## CCCN1CCc2c(sc(NC(=O)c3ccc(S(=O)(=O)N(C)c4ccccc4)cc3)c2C(=O)NC)C1
[9]
  AC50: 3.26 µM (active)

## CCN(c1ccccc1)S(=O)(=O)c1c[nH]cn1
[6]
  EC50: > 195 µM (not active)

## CCOC(=O)N1CCN(S(=O)(=O)c2ccc3c(c2)OCC(=O)N3)CC1
[6]
  EC50: > 195 µM (not active)

## CCN(CCS(=O)(=O)c1ccc(Cl)cc1)C(=O)Nc1ccccc1
[6]
  EC50: > 195 µM (not active)

## Cc1csc(=O)n1CCC(=O)OCC(=O)NNC(=O)c1ccc(Cl)cc1
[7]
  IC50: > 66 µM (inactive)
[8]
  IC50: > 66 µM (inactive)

## Cc1cc(C)cc(NC(=O)Nc2ccc(-n3ccc(C(F)(F)F)n3)cc2)c1
[9]
  AC50: 1.61 µM (active)

## NN=C(S)NC1CC2CC1C1C=CCC21 (stereo not drawn)
[6]
  EC50: > 195 µM (not active)

## COc1cc(OC)c(Cl)cc1N
[5]
  IC50: 35.9 µM (active)

## Cc1nc2cc(C(=O)O)ccc2s1
[7]
  IC50: > 66 µM (inactive)
[8]
  IC50: > 66 µM (inactive)

## Nc1ccc2c(c1)Oc1ccccc1C=C2
[9]
  AC50: > 195 µM (inactive)

## COc1cccc(OCC(O)CN2CCN(C)CC2)c1 (stereo not drawn)
[5]
  IC50: 74.6 µM (active)

## Cc1ccc(Cl)cc1NC(=O)C1COc2ccccc2O1 (stereo not drawn)
[6]
  EC50: > 195 µM (not active)

## Fc1ccc(CNCCc2ccccc2)cc1
[5]
  IC50: 249 µM (active)

## Cc1ccc(C(c2sc3ncnn3c2O)N2CC(C)CC(C)C2)cc1 (stereo not drawn)
[6]
  EC50: > 195 µM (not active)

## CCOC(=O)C(CC)Sc1nc2c(c(=O)[nH]c(=O)n2C)n1CCc1ccccc1 (stereo not drawn)
[7]
  IC50: > 66 µM (inactive)
[8]
  IC50: > 66 µM (inactive)

## O=C(c1cc2c(s1)-c1ccccc1OC2)N1CCN(c2ccccc2)CC1
[6]
  EC50: > 195 µM (not active)

## CCn1nc(CC(C)C)cc1C(=O)N1CCCC(Nc2ccc(OC)cc2)C1 (stereo not drawn)
[5]
  IC50: 121 µM (active)

## Cc1cc(C(=O)NC2CCCN(Cc3ccc(Cl)cc3)C2)n(C)n1 (stereo not drawn)
[6]
  EC50: > 195 µM (not active)

## NC(=O)CC(NC(=O)Cc1ccc(Br)cc1)c1ccc(NCc2cc(F)ccc2F)c([N+](=O)[O-])c1 (stereo not drawn)
[9]
  AC50: 2.52 µM (active)

## O=C(/C=C/c1ccco1)NC(=S)Nc1ccc(N2CCCC2)cc1
[7]
  IC50: > 66 µM (inactive)
[8]
  IC50: > 66 µM (inactive)

## CCOc1cc(NC(=O)c2ccccn2)c(OCC)cc1NC(=O)c1ccccc1
[9]
  AC50: 24.4 µM (active)

## CCCSc1nnc(CNS(=O)(=O)c2ccc(C)cc2)n1C
[6]
  EC50: > 195 µM (not active)

## Nc1ccc(N=Nc2ccccc2)c2ccccc12
[10]
  EC50: 8.03 µM (active)
Streptokinase A
  EC50: > 150 µM (not active)
Streptococcus
  EC50: 9.13 µM (active)
[9]
  AC50: 6.49 µM (active)

## CCN1C(=O)/C(=C2\SC(=S)N(c3c(C)n(C)n(-c4ccccc4)c3=O)C2=O)c2ccccc21
[7]
  IC50: > 66 µM (inactive)
[8]
  IC50: > 66 µM (inactive)

## COc1cc2sc(-c3ccccc3OC)c(-c3ccc(O)cc3)c2cc1OC
[9]
  AC50: 2.32 µM (active)

## CC(C)=NNc1cnnc2ccc([N+](=O)[O-])cc12
H9c2
  IC50: 8.8 µM (active)

## COC(=O)c1[nH]c2cc(OC)c(OC)cc2c1/C=N/Nc1ccccc1
[11]
  EC50: 20.3 µM (inconclusive)
H9c2
  IC50: > 79 µM (inactive)
[12]
  EC50: 20 µM (active)

## CCN(CC)c1ccc(/C=N/NC(=O)c2cc3ccccc3[nH]2)cc1
[5]
  IC50: 146 µM (active)
